Target: T1, p300 (Homo sapiens, UniProt Q09472)
T1 construct: host or cells: A549 P300 HiBit cells
Experiment: P300 degradation, HiBit technology in A549 P300 HiBit cells (2 h)
Assay type: cell-based
Settings: 2 hrs post treatment; for Dmax: A549, A549 P300 HiBit cells; for DC50: A549 P300 HiBit cells
Experimental: p300 and CBP degradation potency and Dmax were determined using in cell western (ICW) assay technology in H1299 cells or HiBit technology in A549 HiBit cells.
A549 P300 HiBit and A549 CBP HiBit cells were plated in separate 384-well, TC treated, white-opaque, flat-bottomed microplate. Cells were plated at a cell density of 0.2×10^4 cells per well in assay media comprised of F-12K, 10% heat inactivated FBS, and 1% penicillin/streptomycin. Assay microplates containing HiBit cells were placed in a 37° C., 5% CO2, tissue culture incubator and left to equilibrate overnight. The next day cells were treated with serial dilutions of test compound made up of 10 mM stock solutions in DMSO. 384-Well plates containing treated cells were then placed back into a 37° C., 5% CO2, tissue culture incubator. Assay microplates containing A549 P300 HiBit cells were incubated for 2 hrs post treatment before P300 destruction was assessed, while microplates containing A549 CBP HiBit cells were incubated for 24 hrs post treatment before CBP destruction was determined. On the day of each assay time point, microplates were removed from the tissue culture incubator and prepared HiBit Lytic detection buffer (Promega, cat #N3O40) was added to each plate. Plates were covered with aluminum foil and incubated for ten minutes at room temperature on an orbital shaker. After incubation, luminescent signal of each plate was measured using the Envision instrument (Perkin Elmer).

T1 sequence (Q09472 whole entry): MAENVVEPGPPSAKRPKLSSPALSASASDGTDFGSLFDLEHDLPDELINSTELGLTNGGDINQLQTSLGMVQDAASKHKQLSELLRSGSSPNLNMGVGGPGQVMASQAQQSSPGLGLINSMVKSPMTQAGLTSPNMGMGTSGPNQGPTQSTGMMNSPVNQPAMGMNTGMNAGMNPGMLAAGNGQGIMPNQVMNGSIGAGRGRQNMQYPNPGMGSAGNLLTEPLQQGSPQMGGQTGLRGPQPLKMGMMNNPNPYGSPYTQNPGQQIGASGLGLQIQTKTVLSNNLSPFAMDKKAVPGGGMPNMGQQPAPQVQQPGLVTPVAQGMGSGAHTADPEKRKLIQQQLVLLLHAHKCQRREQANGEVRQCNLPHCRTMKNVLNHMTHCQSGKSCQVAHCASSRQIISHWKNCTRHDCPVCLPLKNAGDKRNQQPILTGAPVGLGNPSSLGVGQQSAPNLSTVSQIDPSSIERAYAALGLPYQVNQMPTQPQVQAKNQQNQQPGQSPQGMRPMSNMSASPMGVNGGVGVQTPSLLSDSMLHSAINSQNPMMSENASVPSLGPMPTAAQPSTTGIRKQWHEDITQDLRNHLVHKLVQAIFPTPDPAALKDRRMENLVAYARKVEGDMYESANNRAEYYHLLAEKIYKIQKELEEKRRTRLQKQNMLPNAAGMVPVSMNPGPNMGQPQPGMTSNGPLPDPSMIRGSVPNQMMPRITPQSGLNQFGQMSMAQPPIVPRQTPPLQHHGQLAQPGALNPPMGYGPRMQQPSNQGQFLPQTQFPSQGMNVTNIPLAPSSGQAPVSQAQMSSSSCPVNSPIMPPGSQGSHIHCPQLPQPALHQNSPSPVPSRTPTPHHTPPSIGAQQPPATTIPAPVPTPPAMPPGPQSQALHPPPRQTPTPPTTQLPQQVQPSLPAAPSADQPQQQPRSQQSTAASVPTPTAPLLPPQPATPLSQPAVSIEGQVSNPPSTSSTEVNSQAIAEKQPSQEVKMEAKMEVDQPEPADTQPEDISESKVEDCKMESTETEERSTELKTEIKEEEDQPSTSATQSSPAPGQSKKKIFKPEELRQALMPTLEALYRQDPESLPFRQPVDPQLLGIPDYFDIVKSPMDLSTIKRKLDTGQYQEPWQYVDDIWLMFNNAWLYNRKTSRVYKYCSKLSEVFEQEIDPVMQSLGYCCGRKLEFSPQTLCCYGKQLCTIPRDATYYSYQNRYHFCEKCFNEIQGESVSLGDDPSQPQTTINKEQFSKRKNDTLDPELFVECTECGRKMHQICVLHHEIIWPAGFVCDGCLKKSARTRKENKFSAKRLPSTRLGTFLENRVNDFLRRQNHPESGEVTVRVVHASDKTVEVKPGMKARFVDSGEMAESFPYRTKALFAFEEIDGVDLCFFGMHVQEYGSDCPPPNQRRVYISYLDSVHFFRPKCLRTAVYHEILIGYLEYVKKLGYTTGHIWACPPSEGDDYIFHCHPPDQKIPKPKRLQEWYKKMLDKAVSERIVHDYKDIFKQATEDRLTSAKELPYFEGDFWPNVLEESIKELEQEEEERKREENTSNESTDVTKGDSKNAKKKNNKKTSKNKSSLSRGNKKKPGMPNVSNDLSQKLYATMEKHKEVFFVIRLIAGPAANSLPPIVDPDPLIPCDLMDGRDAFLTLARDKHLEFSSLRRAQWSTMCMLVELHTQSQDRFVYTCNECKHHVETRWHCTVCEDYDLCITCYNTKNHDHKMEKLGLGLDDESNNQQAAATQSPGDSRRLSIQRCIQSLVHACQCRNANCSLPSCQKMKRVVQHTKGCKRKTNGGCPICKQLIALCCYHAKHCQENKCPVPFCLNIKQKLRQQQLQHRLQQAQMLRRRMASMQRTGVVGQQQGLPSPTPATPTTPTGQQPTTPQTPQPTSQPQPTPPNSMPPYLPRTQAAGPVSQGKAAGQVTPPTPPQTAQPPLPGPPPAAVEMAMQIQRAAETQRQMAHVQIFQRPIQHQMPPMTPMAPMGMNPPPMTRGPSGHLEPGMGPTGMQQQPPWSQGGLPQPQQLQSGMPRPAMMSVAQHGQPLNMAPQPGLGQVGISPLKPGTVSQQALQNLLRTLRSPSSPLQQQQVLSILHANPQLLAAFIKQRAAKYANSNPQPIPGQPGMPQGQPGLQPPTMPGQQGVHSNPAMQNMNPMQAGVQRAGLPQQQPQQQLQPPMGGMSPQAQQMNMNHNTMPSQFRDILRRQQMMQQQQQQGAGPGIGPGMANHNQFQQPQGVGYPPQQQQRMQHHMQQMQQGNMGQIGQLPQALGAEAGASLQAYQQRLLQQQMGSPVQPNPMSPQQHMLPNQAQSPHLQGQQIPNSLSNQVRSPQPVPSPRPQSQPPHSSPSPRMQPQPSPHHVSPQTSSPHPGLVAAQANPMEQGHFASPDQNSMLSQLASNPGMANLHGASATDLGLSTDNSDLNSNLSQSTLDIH

| Dmax [%] | DC50 [nM] | Structure (SMILES) |
| --- | --- | --- |
| < 20 | > 1000 | CCc1cc(S(=O)(=O)c2ccc(-c3cnc(C(=O)NCC#Cc4cccc(NC5CCC(=O)NC5=O)c4)c(C)c3)nc2)c2cc(C)c(=O)n(C)c2c1 (stereo not drawn) [Example B10, N-(3-(3-((2,6-Dioxopiperidin-3-yl)amino)phenyl)prop-2-yn-1-yl)-5-((7-ethyl-1,3-dimethyl-2-oxo-1,2-dihydroquinolin-5-yl)sulfonyl)-5′-methyl-[2,3′-bipyridine]-6′-carboxamide] |
| < 20 | > 1000 | Cc1cc(-c2ncc(N(C)c3cc(C4CCOCC4)c4c(c3)n(C)c(=O)n4C)s2)cnc1C(=O)NCC#Cc1ccc2occ(C3CCC(=O)NC3=O)c2c1 (stereo not drawn) [Example A149, 5-(5-((1,3-dimethyl-2-oxo-7-(tetrahydro-2H-pyran-4-yl)-2,3-dihydro-1H-benzo[d]imidazol-5-yl)(methyl)amino)thiazol-2-yl)-N-(3-(3-(2,6-dioxopiperidin-3-yl)benzofuran-5-yl)prop-2-yn-1-yl)-3-methylpicolinamide] |
| < 20 | > 1000 | Cc1cc(-c2ncc(N(C)c3cc4c(c(C(C)C)n3)n(C)c(=O)n4C)cn2)cnc1C(=O)NCC#Cc1ccc2occ(C3CCC(=O)NC3=O)c2c1 (stereo not drawn) [Example A74, N-(3-(3-(2,6-dioxopiperidin-3-yl)benzofuran-5-yl)prop-2-yn-1-yl)-5-(5-((4-isopropyl-1,3-dimethyl-2-oxo-2,3-dihydro-1H-imidazo[4,5-c]pyridin-6-yl)(methyl)amino)pyrimidin-2-yl)-3-methylpicolinamide] |
| 60 to 79 | 10 to 99 | CCc1cc(-c2cccc3cc(-c4ccc(C(=O)NCC#Cc5cc(C)c6cnn(C7CCC(=O)NC7=O)c6c5)nc4)ncc23)c2cc(C)c(=O)n(C)c2c1 (stereo not drawn) [Example B6, N-(3-(1-(2,6-Dioxopiperidin-3-yl)-4-methyl-1H-indazol-6-yl)prop-2-yn-1-yl)-5-(8-(7-ethyl-1,3-dimethyl-2-oxo-1,2-dihydroquinolin-5-yl)isoquinolin-3-yl)picolinamide] |
| < 20 | > 1000 | Cn1c(=O)oc2cc(-c3cccc4cc(-c5ccc(C(=O)NCC#Cc6ccc7occ(C8CCC(=O)NC8=O)c7c6)nc5)ncc34)ccc21 (stereo not drawn) [Example A120, N-(3-(3-(2,6-dioxo-piperidin-3-yl)benzofuran-5-yl)prop-2-yn-1-yl)-5-(8-(3-methyl-2-oxo-2,3-dihydrobenzo[d]oxazol-6-yl)isoquinolin-3-yl)picolinamide] |
| > 80 | 1 to 9.9 | Cn1c(=O)n(C)c2c(N3CCC3)nc(-c3cccc4cc(-c5ccc(C(=O)NCC#Cc6cc7c(C8CCC(=O)NC8=O)cccc7o6)nc5)ncc34)cc21 (stereo not drawn) [Example A205, 5-(8-(4-(azetidin-1-yl)-1,3-dimethyl-2-oxo-2,3-dihydro-1H-imidazo[4,5-c]pyridin-6-yl)iso-quinolin-3-yl)-N-(3-(4-(2,6-dioxopiperidin-3-yl)benzofuran-2-yl)prop-2-yn-1-yl)picolinamide] |
| 60 to 79 | 1 to 9.9 | CC(C)c1cc(-c2cccc3cc(-c4ccc(C(=O)NCC#Cc5ccc6c(CN(C)C)nn(C7CCC(=O)NC7=O)c6c5)nc4)ncc23)cc2c1n(C)c(=O)n2C (stereo not drawn) [Example A28, N-(3-(3-((Dimethylamino)methyl)-1-(2,6-dioxopiperidin-3-yl)-1H-indazol-6-yl)prop-2-yn-1-yl)-5-(8-(7-isopropyl-1,3-dimethyl-2-oxo-2,3-dihydro-1H-benzo[d]imidazol-5-yl)isoquinolin-3-yl)picolinamide] |
| > 80 | 1 to 9.9 | Cc1cc(N2CCCc3nc(-c4ccc(C(=O)NCC#Cc5cc6c(C7CCC(=O)NC7=O)nccc6o5)nc4)ncc32)c2cc(C)c(=O)n(C)c2c1 (stereo not drawn) [Example B120, N-(3-(4-(2,6-dioxopiperidin-3-yl)furo[3,2-c]pyridin-2-yl)prop-2-yn-1-yl)-5-(5-(1,3,7-trimethyl-2-oxo-1,2-dihydroquinolin-5-yl)-5,6,7,8-tetrahydropyrido[3,2-d]pyrimidin-2-yl) picolinamide] |
| < 20 | 100 to 999 | Cc1cc2c(N3CCCc4nc(-c5ccc(C(=O)NCC#Cc6cc7c(C89CC(C8)C(=O)NC9=O)cccc7o6)nc5)ncc43)cc(C3CCOCC3)cc2n(C)c1=O [Example B97, 5-(5-(1,3-dimethyl-2-oxo-7-(tetrahydro-2H-pyran-4-yl)-1,2-dihydroquinolin-5-yl)-5,6,7,8-tetrahydropyrido[3,2-d]pyrimidin-2-yl)-N-(3-(4-(2,4-dioxo-3-azabicyclo[3.1.1]heptan-1-yl)benzofuran-2-yl)prop-2-yn-1-yl)picolinamide] |
| > 80 | 10 to 99 | COc1nn(C2CCC(=O)NC2=O)c2cc(C#CCNC(=O)c3ccc(-c4cc5cccc(-c6cc(C(C)C)c7c(c6)n(C)c(=O)n7C)c5cn4)cn3)ccc12 (stereo not drawn) [Example A4, N-(3-(1-(2,6-Dioxopiperidin-3-yl)-3-methoxy-1H-indazol-6-yl)prop-2-yn-1-yl)-5-(8-(7-isopropyl-1,3-dimethyl-2-oxo-2,3-dihydro-1H-benzo[d]imidazol-5-yl)isoquinolin-3-yl)picolinamide] |
| > 80 | 1 to 9.9 | Cc1cc2c(N3CCOc4cc(-c5ccc(C(=O)NCC#Cc6ccc7occ(C8CCC(=O)NC8=O)c7c6)nc5)c(F)cc43)cc(C3CCOCC3)cc2n(C)c1=O (stereo not drawn) [Example B99, 5-(4-(1,3-dimethyl-2-oxo-7-(tetrahydro-2H-pyran-4-yl)-1,2-dihydroquinolin-5-yl)-6-fluoro-3,4-dihydro-2H-benzo[b][1,4]oxazin-7-yl)-N-(3-(3-(2,6-dioxopiperidin-3-yl)benzofuran-5-yl)prop-2-yn-1-yl)picolinamide] |
| 20 to 39 | 1 to 9.9 | CC(C)c1cc(-c2cccc3cc(-c4ccc(C(=O)NCC#Cc5ccc6c(C(F)F)nn(C7CCC(=O)NC7=O)c6c5)nc4)ncc23)cc2c1n(C)c(=O)n2C (stereo not drawn) [Example A31, N-(3-(3-(Difluoromethyl)-1-(2,6-dioxopiperidin-3-yl)-1H-indazol-6-yl)prop-2-yn-1-yl)-5-(8-(7-isopropyl-1,3-dimethyl-2-oxo-2,3-dihydro-1H-benzo[d]imidazol-5-yl)isoquinolin-3-yl)picolinamide] |
| 60 to 79 | 1 to 9.9 | CCn1c(=O)n(C)c2c(C)cc(N3CCOc4nc(-c5ccc(C(=O)NCC#Cc6ccc7occ(C8CCC(=O)NC8=O)c7c6)nc5)ncc43)cc21 (stereo not drawn) [Example A77, N-(3-(3-(2,6-dioxopiperidin-3-yl)benzofuran-5-yl)prop-2-yn-1-yl)-5-(5-(3-ethyl-1,7-dimethyl-2-oxo-2,3-dihydro-1H-benzo[d]imidazol-5-yl)-6,7-dihydro-5H-pyrimido[4,5-b][1,4]oxazin-2-yl)picolinamide] |
| 60 to 79 | 10 to 99 | Cc1cc(-c2ccc(N(C)c3cc(C(C)C)c4c(c3)n(C)c(=O)n4C)cc2C(F)(F)F)cnc1C(=O)NCC#Cc1cccc(NC2CCC(=O)NC2=O)c1 (stereo not drawn) [Example A48, N-(3-(3-((2,6-dioxopiperidin-3-yl)amino)phenyl)prop-2-yn-1-yl)-5-(4-((7-isopropyl-1,3-dimethyl-2-oxo-2,3-dihydro-1H-benzo [d]imidazol-5-yl)(methyl)amino)-2-(trifluoromethyl)phenyl)-3-methylpicolinamide] |
| 60 to 79 | 1 to 9.9 | Cn1c(=O)n(C)c2cc(-c3cccc4cc(-c5ccc(C(=O)NCC#Cc6cc7c(C8CCC(=O)NC8=O)cccc7o6)nc5)ncc34)ncc21 (stereo not drawn) [Example A179, 5-(8-(1,3-dimethyl-2-oxo-2,3-dihydro-1H-imidazo[4,5-c]pyridin-6-yl)isoquinolin-3-yl)-N-(3-(4-(2,6-dioxopiperidin-3-yl)benzofuran-2-yl)prop-2-yn-1-yl)picolinamide] |
| > 80 | < 1 | Cc1cc(-c2cn(C)c(=O)c3cc(-c4ccc(C(=O)NCC#Cc5ccc6occ(C7CCC(=O)NC7=O)c6c5)nc4)ncc23)cc2c1n(C)c(=O)n2C (stereo not drawn) [Example A107, N-(3-(3-(2,6-dioxo-piperidin-3-yl)benzofuran-5-yl)prop-2-yn-1-yl)-5-(6-methyl-5-oxo-8-(1,3,7-trimethyl-2-oxo-2,3-dihydro-1H-benzo[d]imidazol-5-yl)-5,6-dihydro-2,6-naphthyridin-3-yl)picolinamide] |
| < 20 | > 1000 | Cc1cc(-c2ncc(N(C)c3cc4c(c(N5CCOCC5)n3)n(C)c(=O)n4C)cn2)cnc1C(=O)NCC#Cc1ccc2occ(C3CCC(=O)NC3=O)c2c1 (stereo not drawn) [Example A147, 5-(5-((1,3-dimethyl-4-morpholino-2-oxo-2,3-dihydro-1H-imidazo[4,5-c]pyridin-6-yl)(methyl)amino)pyrimidin-2-yl)-N-(3-(3-(2,6-dioxopiperidin-3-yl)benzofuran-5-yl)prop-2-yn-1-yl)-3-methylpicolinamide] |
| 60 to 79 | 1 to 9.9 | Cc1cc(-c2ncc(N(C)c3ccc4c(c3)n(C)c(=O)n4C)cn2)cnc1C(=O)NCC#Cc1ccc2occ(C3CCC(=O)NC3=O)c2c1 (stereo not drawn) [Example A103, 5-(5-((1,3-dimethyl-2-oxo-2,3-dihydro-1H-benzo[d]imidazol-5-yl)(methyl)amino)pyrimidin-2-yl)-N-(3-(3-(2,6-dioxopiperidin-3-yl)benzofuran-5-yl)prop-2-yn-1-yl)-3-methylpicolinamide] |
